Data from PMC8389922, “First-in-Class Cyclic Temporin L Analogue: Design, Synthesis, and Antimicrobial Assessment” (Journal of Medicinal Chemistry, 2021).
Converted amounts (≈) assume the structure as drawn. Bridge positions count the residues as written; N and C are the ends. Square brackets hold non-standard residues; d marks the D form. Peptide text beside a SMILES is read from it.

Columns and labels:
[1] = tested on: HaCaT cells (human immortalized keratinocytes); assay: Cytotoxicity, MTT assay; format: cell-based
Method: In particular, the cytotoxicity was evaluated by the 3-(4,5-dimethylthiazol-2-yl)-2,5-diphenyltetrazolium bromide (MTT) assay and is expressed as the percentage of viability of peptide-treated cells compared to that of untreated control cells. As expected, after 2 and 24 h treatments, the cell viability decreased in a concentration-dependent manner for all peptides (Figure 2).
Figure 2 Viability of peptide-treated HaCaT cells evaluated by MTT assay at 2 h (a) and 24 h (b). All data are expressed as a percentage with respect to the untreated control cells and are the mean of three independent experiments ± standard error of the mean (SEM).
The human immortalized keratinocytes HaCaT cells (AddexBio, San Diego, CA) were cultured in Dulbecco’s modified Eagle’s medium containing 4 mM glutamine (DMEMg), supplemented with 10% heat-inactivated fetal bovine serum (FBS) and 0.1 mg/mL of penicillin and streptomycin, at 37 °C and 5% CO2, in 25 or 75 cm^2 flasks.
The quantification of cell viability was performed by the in vitro MTT [3-(4,5-dimethylthiazol-2-yl)-2,5-diphenyltetrazolium bromide] assay, as previously reported,[77] measuring the conversion of the soluble yellow dye MTT to insoluble purple formazan by mitochondrial dehydrogenases. More precisely, 4 × 10^4 HaCaT cells, suspended in DMEMg supplemented with 2% FBS without antibiotics, were plated in each well of the 96-well plate. After overnight incubation at 37 °C and 5% CO2, the medium of each well was replaced by DMEMg containing the peptide at different concentrations, as indicated. Controls were HaCaT cells not treated with the peptide. After 2 and 24 h of incubation at 37 °C and 5% CO2, the medium was discarded; 0.5 mg/mL of MTT in Hank’s buffer was added to each well, and the plate was incubated for further 4 h. Acidified isopropanol was then added to dissolve formazan crystals, and the absorbance of each well at 570 nm was measured using a microplate reader (Infinite M200; Tecan, Salzburg, Austria). The purple color intensity is directly proportional to the number of viable cells, which was expressed as a percentage compared to that of untreated control cells (100%).

[2] = CD in SUVs, ratio of ellipticities at 222 and 208 nm; format: physicochemical; details: peptide 8 μM, lipid 100 μM, phosphate buffer 5 mM pH 7.4, 25 °C, >1.0 indicates oligomeric helices
Excerpt: TEXT PRINTED IN THE PICTURE: (c) 9: DOPG/CL mimicking Gram-positive membrane: θ222/ θ208: 1.7 | (c) 12: DOPG/CL mimicking Gram-positive membrane: θ222/ θ208: 2.6 | (c) 17: DOPG/CL mimicking Gram-positive membrane: θ222/ θ208: 1.9 | (f) 9: DOPE/DOPG/CL mimicking Gram-negative membrane: θ222/ θ208: 1.8 | (f) 12: DOPE/DOPG/CL mimicking Gram-negative membrane: θ222/ θ208: 2.1 | (f) 17: DOPE/DOPG/CL mimicking Gram-negative membrane: θ222/ θ208: 1.7
The ratio of the ellipticities at 222 and 208 nm was calculated to discriminate between monomeric and oligomeric states of helices.[64] As observed in our CD spectra, the ratio θ222/θ208 is always greater than 1.0 in both membranes, indicating an α-helical conformation in its oligomeric state (Figure 4c,f).
SUVs were prepared as reported: lipids (Gram-positive, DOPG/CL, 58/42 ratio in moles; Gram-negative DOPG/DOPE/CL, 63/23/12 ratio in moles) were dissolved in chloroform and an identical volume of peptide solution dissolved in TFE was added.[76] Then, the samples were vortexed and lyophilized overnight. CD spectra were recorded at a peptide concentration of 8 μM and at a lipid final concentration of 100 μM. […] CD spectra were recorded at 25 °C on a Jasco J-715 spectropolarimeter in a 1 cm quartz cell using three consecutive scans from 260 to 190 nm, 3 nm bandwidth, a time constant of 16 s, and a scan rate of 10 nm/min.

[3] = Peptide aggregation in LPS (ThT fluorescence); format: physicochemical; details: peptide 20 μM, LPS 1 mg/mL, ThT 25 μM, 1 h incubation, ThT emission 482 nm
Method: The peptides were incubated with LPS (1 mg/mL) at a concentration of 20 μM, and ThT (25 μM) was used as a fluorophore to measure aggregation.
Figure 5 Aggregate formation in the interaction between peptides 9 (a), 12 (b), and 17 (c) (20 μM) and LPS (1 mg/mL) monitored by ThT fluorescence (25 μM). Peptide alone and ThT alone were used as controls.
After 1 h, we evaluated the peptide aggregation measuring ThT fluorescence emission at 482 nm (slit width, 5 nm) after excitation at 450 nm (slit width, 10 nm). ThT spectra at 25 μM, and peptide alone at 20 μM were carried out as control.

[4] = tested on: S. aureus ATCC 43300, a methicillin-resistant strain (MRSA); format: cell-based, Staphylococcus aureus
Method: Thus, 12 was further tested against S. aureus ATCC 43300, a methicillin-resistant strain (MRSA), and compared with the linear precursor 9. […] No growth was observed after 24 h. Peptide 9 was bactericidal as well, by killing MRSA within 10 min, but at a higher concentration (25 μM).
The bacterial strains used in the antimicrobial assays were the Gram-negative E. coli ATCC 25922, P. aeruginosa ATCC 27853, A. baumannii ATCC 19606, the Gram-positive S. aureus ATCC 25923, S. epidermidis ATCC 12228, and B. megaterium Bm11. Methicillin-resistant S. aureus (MRSA) ATCC 43300 was obtained from Culture Collection Center of School of Basic Medical Sciences of Lanzhou University (China).
The determination of MICs was conducted as previously reported.[61] Aliquots of 50 μL of bacterial culture appropriately diluted were added to each well of a 96-well plate to reach a final cell density of 1 × 10^6 CFU/mL and a final peptide concentration ranging from 100 to 0.78 μM (final volume 100 μL).

in vitro = details: male, human, 90% fresh human serum
Method: Peptides were incubated with 90% fresh human serum at 37 ± 1 °C within 12 h.[69] The percentage of intact peptide was monitored by calculating the peak area of the chromatogram from RP-HPLC analysis.
The peptide was incubated in a 1.5 mL eppendorf tube with human serum at a final concentration of 0.2 mM, and the mixture was incubated at 37 ± 1 °C for different periods (0.25, 0.75, 1.5, 2, 3, 4, 6, 7, 8, and 12 h). After the incubation period, an aliquot of reaction solution was taken and added MeCN (double volume respect to the aliquot) for the precipitation of serum proteins present in human serum. The produced cloudy solution was cooled (4 °C) for 15 min and then centrifuged at 13 000 rpm for 10 min to remove the serum protein as pellet. Then, the supernatant was analyzed by RP-UHPLC using a linear elution gradient from 10 to 90% MeCN (0.1% TFA) in water (0.1% TFA) over 20 min. A flow rate of 1 mL/min was employed, and the absorbance of the eluting peaks was detected at 220 nm. The proteolytic stability assay was repeated in triplicate.

| SMILES | HaCaT cell viability ([1]; 2 h treatment, 25 μM, vs untreated control, mean of three independent experiments) | HaCaT cell viability ([1]; 2 h treatment, 50 μM, vs untreated control, mean of three independent experiments) | HaCaT cell viability ([1]; 24 h treatment (sentence continues from 50 μM), vs untreated control) | θ222/θ208 ([2]; CD in DOPE/DOPG/CL SUVs) | θ222/θ208 ([2]; CD in DOPG/CL SUVs) | aggregation in the presence of LPS [3] | HaCaT cell viability ([1]; 25 μM, same profile after either 2 or 24 h) | HaCaT cell viability ([1]; 50 μM, same profile after either 2 or 24 h) | MIC S. aureus ATCC 43300 (MRSA) [4] | half-life at 0.2 mM (in vitro) | remaining at 1.5 h, 0.2 mM (in vitro) |
| --- | --- | --- | --- | --- | --- | --- | --- | --- | --- | --- | --- |
| CC[C@H](C)[C@H](NC(=O)[C@H](CCCNC(=N)N)NC(=O)[C@@H]1CCCCn2cc(nn2)C[C@H](NC(=O)[C@H](Cc2ccccc2)NC(=O)[C@H](Cc2c[nH]c3ccccc23)NC(=O)[C@@H]2CCCN2C(=O)[C@@H](NC(=O)[C@@H](N)Cc2ccccc2)C(C)C)C(=O)N[C@@H](CCCCN)C(=O)N[C@@H](Cc2ccccc2)C(=O)NC(CC(C)C)C(=O)N1)C(=O)N[C@@H](CC(C)C)C(N)=O (stereo in doubt) [compound 17] | 60–70% | less than 40% | less than 20% | 1.7 | 1.9 | higher ability to aggregate | – | – | – | – | – |
| CC[C@H](C)[C@H](NC(=O)[C@H](CCCNC(=N)N)NC(=O)[C@@H]1CCC(=O)NCCCC[C@H](NC(=O)[C@H](Cc2ccccc2)NC(=O)[C@H](Cc2c[nH]c3ccccc23)NC(=O)[C@@H]2CCCN2C(=O)[C@@H](NC(=O)[C@@H](N)Cc2ccccc2)C(C)C)C(=O)N[C@@H](CCCCN)C(=O)N[C@@H](Cc2ccccc2)C(=O)N[C@H](CC(C)C)C(=O)N1)C(=O)N[C@@H](CC(C)C)C(N)=O [compound 12] (H-FVPWFKKF[dL]ERIL-NH2; lactam 6-10) | – | – | – | – | – | lowest aggregation | 94% | 60% | 12.5 µM (≈ 21.3 µg/mL) | ~6 h | ~70% |
